Experimental data taken from ChEMBL document CHEMBL4376879, “Fragment-to-Lead Medicinal Chemistry Publications in 2018” (J Med Chem, 2020).
Values belong to the compound of their own block, whether it stands above or below them.

Tests used:
[1] = target: Beta-2 adrenergic receptor (Homo sapiens, UniProt P07550); assay: Inhibition of beta2 adrenoreceptor (unknown origin)
[2] = target: T1, Glycylpeptide N-tetradecanoyltransferase 1 (Homo sapiens, UniProt P30419); assay: Inhibition of human N-myristoyltransferase assessed as reduction in CoASH production by fluorogenic detection based assay
T1 sequence (P30419 whole entry): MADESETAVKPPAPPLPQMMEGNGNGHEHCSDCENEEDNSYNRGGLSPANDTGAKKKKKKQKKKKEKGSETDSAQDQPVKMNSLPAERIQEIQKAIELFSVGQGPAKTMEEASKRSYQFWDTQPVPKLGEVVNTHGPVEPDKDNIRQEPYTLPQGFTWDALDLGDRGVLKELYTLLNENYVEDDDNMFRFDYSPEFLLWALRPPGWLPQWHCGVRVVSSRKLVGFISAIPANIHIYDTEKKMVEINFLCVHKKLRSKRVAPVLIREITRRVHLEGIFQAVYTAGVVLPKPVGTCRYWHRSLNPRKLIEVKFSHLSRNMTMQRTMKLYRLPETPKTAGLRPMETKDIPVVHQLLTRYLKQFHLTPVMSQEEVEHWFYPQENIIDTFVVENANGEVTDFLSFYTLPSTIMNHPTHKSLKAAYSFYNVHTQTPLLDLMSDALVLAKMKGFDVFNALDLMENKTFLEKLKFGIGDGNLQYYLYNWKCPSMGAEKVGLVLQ

[3] = target: cAMP and cAMP-inhibited cGMP 3',5'-cyclic phosphodiesterase 10A (Homo sapiens, UniProt Q9Y233); assay: Inhibition of human PDE10A2 using cAMP substrate by HTRF assay
Sequence of cAMP and cAMP-inhibited cGMP 3',5'-cyclic phosphodiesterase 10A (Q9Y233 whole entry, the tested form may be a part): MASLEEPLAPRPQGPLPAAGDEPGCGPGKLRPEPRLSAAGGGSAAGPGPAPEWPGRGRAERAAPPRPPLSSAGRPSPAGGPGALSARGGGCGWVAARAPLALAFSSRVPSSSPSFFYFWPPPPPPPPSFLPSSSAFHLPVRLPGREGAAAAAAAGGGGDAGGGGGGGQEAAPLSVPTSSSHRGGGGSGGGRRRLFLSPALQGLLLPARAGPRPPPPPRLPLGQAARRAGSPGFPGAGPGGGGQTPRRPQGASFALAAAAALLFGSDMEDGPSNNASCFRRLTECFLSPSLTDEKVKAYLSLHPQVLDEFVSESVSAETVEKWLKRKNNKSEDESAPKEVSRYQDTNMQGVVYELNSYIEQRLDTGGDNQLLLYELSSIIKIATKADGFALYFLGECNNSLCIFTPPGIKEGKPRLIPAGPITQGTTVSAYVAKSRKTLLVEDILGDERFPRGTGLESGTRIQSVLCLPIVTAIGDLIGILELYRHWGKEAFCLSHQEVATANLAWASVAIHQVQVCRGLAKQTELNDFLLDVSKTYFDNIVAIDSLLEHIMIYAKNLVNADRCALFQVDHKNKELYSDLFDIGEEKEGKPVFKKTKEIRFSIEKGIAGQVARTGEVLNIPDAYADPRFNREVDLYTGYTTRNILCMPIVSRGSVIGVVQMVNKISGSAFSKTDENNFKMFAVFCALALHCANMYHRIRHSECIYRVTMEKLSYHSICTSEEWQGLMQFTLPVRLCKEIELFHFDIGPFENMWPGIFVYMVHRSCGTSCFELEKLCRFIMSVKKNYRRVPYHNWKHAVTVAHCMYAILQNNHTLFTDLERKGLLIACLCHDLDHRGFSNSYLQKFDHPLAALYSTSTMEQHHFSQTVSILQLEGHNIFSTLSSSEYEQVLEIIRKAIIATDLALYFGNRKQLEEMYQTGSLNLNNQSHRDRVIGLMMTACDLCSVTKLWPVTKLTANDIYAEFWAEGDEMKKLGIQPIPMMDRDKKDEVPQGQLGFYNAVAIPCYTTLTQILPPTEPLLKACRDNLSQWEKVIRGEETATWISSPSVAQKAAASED

[4] = target: GTPase HRas (Homo sapiens, UniProt P01112, G12V); assay: Inhibition GST-tagged recombinant HRAS G12V mutant (1 to 166 amino acids) (unknown origin) expressed in Escherichia coli C41(DE3) by SPR assay
Sequence of GTPase HRas (P01112 whole entry G12V, the tested form may be a part): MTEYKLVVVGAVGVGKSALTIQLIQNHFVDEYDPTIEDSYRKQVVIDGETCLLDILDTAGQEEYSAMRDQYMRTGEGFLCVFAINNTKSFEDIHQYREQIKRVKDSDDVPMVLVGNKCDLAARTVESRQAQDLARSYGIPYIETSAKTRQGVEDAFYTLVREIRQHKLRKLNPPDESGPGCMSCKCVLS

[5] = target: CREB-binding protein (Homo sapiens, UniProt Q92793); assay: Binding affinity to Poly-Histidine-tagged CBP (unknown origin) expressed in Escherichia coli BL21(DE3) by competition binding assay
Sequence of CREB-binding protein (Q92793 whole entry): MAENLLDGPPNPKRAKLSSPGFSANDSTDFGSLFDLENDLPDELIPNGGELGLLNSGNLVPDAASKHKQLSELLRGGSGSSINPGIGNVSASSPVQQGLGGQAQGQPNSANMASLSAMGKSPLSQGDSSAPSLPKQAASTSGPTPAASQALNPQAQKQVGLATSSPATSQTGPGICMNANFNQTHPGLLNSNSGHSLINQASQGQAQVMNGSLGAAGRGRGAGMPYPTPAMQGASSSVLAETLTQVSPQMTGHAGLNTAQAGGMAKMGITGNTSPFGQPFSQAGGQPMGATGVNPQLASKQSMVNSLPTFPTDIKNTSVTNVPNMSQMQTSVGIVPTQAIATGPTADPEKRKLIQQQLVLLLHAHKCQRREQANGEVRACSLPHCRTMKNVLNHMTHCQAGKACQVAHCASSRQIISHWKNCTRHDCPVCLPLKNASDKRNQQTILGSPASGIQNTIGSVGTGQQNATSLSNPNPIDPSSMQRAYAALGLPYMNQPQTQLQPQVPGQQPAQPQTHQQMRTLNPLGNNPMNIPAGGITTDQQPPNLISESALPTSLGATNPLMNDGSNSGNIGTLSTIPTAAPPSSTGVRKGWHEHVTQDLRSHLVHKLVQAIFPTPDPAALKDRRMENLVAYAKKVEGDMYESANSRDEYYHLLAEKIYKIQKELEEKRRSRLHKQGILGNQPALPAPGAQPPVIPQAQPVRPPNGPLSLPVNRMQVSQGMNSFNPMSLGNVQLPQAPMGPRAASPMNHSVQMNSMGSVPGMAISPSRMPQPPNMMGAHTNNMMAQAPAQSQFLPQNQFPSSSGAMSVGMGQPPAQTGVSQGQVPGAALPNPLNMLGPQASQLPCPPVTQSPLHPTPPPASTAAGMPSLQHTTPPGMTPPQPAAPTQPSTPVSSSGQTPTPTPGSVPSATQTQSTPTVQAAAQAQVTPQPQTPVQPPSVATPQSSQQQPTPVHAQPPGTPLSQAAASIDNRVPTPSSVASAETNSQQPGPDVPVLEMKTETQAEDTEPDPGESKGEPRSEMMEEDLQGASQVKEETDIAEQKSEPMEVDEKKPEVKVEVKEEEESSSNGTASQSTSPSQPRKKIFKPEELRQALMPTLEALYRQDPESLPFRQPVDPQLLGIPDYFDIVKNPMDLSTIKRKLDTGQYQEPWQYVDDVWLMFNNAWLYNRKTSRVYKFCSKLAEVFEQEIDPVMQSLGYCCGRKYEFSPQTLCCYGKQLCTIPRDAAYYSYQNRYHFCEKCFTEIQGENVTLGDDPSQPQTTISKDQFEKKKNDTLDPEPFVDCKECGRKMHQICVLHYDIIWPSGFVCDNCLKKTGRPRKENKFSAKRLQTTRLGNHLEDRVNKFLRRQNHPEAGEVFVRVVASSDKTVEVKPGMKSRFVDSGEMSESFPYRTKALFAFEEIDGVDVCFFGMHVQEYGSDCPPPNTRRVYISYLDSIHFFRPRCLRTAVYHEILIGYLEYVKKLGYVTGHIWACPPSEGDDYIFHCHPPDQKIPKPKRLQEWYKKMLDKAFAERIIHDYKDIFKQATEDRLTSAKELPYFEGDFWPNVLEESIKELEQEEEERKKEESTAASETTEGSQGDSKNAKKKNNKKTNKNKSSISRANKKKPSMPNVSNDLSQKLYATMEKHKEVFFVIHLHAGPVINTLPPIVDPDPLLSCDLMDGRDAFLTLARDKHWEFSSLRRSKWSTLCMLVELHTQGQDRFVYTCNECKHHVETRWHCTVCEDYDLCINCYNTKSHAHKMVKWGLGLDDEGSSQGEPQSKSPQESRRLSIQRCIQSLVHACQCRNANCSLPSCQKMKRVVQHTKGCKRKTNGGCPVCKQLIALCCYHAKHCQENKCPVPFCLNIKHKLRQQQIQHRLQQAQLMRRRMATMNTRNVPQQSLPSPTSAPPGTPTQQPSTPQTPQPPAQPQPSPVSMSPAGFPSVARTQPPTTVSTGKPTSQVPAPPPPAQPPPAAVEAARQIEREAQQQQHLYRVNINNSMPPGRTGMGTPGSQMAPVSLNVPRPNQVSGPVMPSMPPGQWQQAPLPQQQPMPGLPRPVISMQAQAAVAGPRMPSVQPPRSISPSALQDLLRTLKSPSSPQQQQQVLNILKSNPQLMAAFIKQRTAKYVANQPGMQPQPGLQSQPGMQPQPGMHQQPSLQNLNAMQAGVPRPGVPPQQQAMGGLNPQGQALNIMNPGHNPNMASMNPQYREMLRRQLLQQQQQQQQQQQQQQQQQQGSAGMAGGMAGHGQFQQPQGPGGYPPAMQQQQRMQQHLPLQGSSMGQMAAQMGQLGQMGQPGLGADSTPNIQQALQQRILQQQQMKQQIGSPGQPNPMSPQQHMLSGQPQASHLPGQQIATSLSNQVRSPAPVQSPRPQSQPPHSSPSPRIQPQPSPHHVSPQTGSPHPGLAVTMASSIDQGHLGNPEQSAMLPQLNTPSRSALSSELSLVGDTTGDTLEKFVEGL

Sequence of Beta-2 adrenergic receptor (P07550 whole entry): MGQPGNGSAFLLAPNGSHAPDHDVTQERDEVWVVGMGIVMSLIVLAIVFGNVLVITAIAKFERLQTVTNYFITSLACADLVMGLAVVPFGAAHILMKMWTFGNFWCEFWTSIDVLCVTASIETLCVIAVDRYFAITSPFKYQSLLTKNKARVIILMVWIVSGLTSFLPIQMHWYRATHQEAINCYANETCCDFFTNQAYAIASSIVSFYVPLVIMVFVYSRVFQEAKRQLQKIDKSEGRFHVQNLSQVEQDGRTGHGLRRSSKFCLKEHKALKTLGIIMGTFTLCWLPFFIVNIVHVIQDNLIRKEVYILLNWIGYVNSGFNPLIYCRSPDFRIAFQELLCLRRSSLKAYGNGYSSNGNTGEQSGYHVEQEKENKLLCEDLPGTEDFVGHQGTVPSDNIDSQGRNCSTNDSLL

IC50 [1]: 10 µM
SMILES: NCc1ccc(-c2ncccn2)cc1

SMILES: Cc1nn(C)c(C)c1CCOc1c(-c2ccc3c(c2)c(CN(C)C)nn3C)ccc(F)c1F
IC50 [2]: < 0.001 µM

IC50 [3]: < 10 µM
SMILES: Cc1cc2nccc(-c3ccc(Cl)cc3)n2n1

Kd [4]: 0.051 µM
SMILES: COc1nc(-c2cccc3c2OCCO3)ccc1Nc1ccc(CN(C)C)cc1

Kd [5]: 53 µM
SMILES: CCOc1ccc(C(C)=O)cc1N

IC50 [1]: < 0.001 µM
SMILES: Clc1ccc(CNCc2ccc(-c3ncccn3)cc2)cc1Cl

Kd [4]: > 370 µM
SMILES: O=C(Nc1ccc2ccccc2n1)c1ccco1
